Measurements reported in patent US9341616B2, “Sweet taste receptor chimeric proteins and use thereof” (AJINOMOTO CO., INC., priority 2014, dated 2016).
Where two headings read alike, the source gives them in different places. Residues, ends and D or L forms follow the SMILES beside them.

Columns and labels:
h-mT1R2-EX5/mT1R3 = h-mT1R2-EX5/mT1R3 (UniProt Q8TE23+Q925D8, A537S/A564V/A568V/A570T/A649T/A658V/A782V/E530V/E534N/E542M/E548N/F525Y/F665L/G696N/G701T/H528R/I490V/I510L/I518V/I595M/I643V/I645L/I692L/I695G/K504M/K626T/K714N/L521P/L571I/L578I/L610P/L631F/L636F/L639V/L688V/L702I/L734M/L800F/M492I/M616G/M682V/M690V/M748V/N540G/N541S/N721H/P638T/P824S/Q536L/Q546K/Q555R/Q676H/R498S/R667S/S501P/S547N/S550A/S628F/S663R/S670G/S681F/S703N/S727G/S784D/S804G/T529S/T549I/T609V/T629S/T642S/T705I/T706G/T716I/V508I/V512P/V557A/V585L/V613L/V617M/V673M/V687A/V691A/V694A/V718L/V741L/V774I/V791M/Y533F/Y615F/Y671F/Y769S/Y783H); settings: Table 4; genes h-mTEX5/mT3 (h-mT1R2-EX5, mT1R3); HEK293E cells
hT1R2/T1R3mosaicA = hT1R2/T1R3mosaicA (UniProt Q8TE23+Q925D8, A12W/A31M/A558R/A588V/A645S/A698V/A702T/A793V/A807V/C582S/C678S/E16H/E725V/F14L/F29L/F541I/F612A/F622V/F695L/H728R/I36V/I60P/I617V/I706V/I740A/I803L/K30R/K555R/K565R/K818R/K827G/L17P/L560F/L684P/L735F/L823M/L825Q/M19T/M644L/M744T/N52R/N547G/N58S/N63T/N675D/P545F/P561R/P564S/P61V/Q32K/Q53S/Q550E/Q56R/Q611L/Q757R/Q795R/Q831P/R632Q/S22P/S45E/S576L/S595F/S610P/S635P/S637R/S679G/S717H/T46A/T50G/T542A/T663I/T694M/T813A/V573A/V584A/V718M/V723A/V729T/V738A/V805L/V812A/V821L/W599R/W676R/W824R/Y680C/Y794L); settings: HEK293E cells
[1] = Table 5, genes hT2/T3mA (hT1R2, T1R3mA)
[2] = Table 6, genes hT2/T1R3mA (hT1R2, T1R3mA)

Chain of h-mT1R2-EX5/mT1R3 (Q8TE23 with tags, fused parts or gaps with the stated changes limits assumed): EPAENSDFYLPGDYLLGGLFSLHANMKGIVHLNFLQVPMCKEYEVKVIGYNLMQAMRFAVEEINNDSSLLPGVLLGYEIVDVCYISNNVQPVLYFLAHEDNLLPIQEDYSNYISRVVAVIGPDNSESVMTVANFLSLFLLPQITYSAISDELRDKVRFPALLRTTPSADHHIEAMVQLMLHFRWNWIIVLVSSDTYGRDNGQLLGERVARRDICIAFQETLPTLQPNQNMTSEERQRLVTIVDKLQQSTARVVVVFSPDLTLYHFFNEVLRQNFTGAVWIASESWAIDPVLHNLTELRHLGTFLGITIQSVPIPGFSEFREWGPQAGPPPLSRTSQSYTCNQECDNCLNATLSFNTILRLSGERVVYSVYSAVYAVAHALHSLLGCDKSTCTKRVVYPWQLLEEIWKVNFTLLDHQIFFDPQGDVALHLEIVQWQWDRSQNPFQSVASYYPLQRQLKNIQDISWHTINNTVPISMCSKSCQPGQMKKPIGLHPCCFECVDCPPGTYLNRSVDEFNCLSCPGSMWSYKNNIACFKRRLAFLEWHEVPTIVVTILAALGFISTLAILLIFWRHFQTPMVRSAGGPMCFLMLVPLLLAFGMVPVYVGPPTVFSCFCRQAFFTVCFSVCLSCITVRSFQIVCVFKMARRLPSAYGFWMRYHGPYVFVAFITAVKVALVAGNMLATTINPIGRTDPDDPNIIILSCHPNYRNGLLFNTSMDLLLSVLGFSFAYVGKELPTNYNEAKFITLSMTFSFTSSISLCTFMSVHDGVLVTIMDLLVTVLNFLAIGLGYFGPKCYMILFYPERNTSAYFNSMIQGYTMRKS
Chain of h-mT1R2-EX5/mT1R3 (Q925D8 21-858, stated change not applied): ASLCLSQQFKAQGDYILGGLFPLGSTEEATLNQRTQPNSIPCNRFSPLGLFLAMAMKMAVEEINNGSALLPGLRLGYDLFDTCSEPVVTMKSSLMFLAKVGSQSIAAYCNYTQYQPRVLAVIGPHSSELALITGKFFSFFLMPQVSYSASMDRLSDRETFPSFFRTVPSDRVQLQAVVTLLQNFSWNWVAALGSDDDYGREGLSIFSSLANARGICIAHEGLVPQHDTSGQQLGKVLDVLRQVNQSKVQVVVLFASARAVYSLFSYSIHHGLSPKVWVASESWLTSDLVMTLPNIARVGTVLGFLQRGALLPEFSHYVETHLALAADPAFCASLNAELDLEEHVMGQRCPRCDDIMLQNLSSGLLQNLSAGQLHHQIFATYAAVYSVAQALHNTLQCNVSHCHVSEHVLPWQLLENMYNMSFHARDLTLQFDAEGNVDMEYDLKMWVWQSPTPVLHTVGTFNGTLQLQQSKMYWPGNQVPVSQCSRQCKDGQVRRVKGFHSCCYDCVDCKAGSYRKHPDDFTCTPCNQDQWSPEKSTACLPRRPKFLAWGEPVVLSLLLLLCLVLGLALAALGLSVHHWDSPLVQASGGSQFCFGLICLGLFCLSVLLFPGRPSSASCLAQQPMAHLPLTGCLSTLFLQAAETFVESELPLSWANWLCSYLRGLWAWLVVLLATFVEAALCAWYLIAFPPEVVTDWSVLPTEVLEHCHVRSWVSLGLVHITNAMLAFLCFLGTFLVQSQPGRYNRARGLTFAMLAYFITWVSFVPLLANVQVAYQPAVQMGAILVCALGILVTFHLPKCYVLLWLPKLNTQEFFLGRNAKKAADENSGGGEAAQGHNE
Chain of hT1R2/T1R3mosaicA (Q8TE23 20-839, stated change not applied): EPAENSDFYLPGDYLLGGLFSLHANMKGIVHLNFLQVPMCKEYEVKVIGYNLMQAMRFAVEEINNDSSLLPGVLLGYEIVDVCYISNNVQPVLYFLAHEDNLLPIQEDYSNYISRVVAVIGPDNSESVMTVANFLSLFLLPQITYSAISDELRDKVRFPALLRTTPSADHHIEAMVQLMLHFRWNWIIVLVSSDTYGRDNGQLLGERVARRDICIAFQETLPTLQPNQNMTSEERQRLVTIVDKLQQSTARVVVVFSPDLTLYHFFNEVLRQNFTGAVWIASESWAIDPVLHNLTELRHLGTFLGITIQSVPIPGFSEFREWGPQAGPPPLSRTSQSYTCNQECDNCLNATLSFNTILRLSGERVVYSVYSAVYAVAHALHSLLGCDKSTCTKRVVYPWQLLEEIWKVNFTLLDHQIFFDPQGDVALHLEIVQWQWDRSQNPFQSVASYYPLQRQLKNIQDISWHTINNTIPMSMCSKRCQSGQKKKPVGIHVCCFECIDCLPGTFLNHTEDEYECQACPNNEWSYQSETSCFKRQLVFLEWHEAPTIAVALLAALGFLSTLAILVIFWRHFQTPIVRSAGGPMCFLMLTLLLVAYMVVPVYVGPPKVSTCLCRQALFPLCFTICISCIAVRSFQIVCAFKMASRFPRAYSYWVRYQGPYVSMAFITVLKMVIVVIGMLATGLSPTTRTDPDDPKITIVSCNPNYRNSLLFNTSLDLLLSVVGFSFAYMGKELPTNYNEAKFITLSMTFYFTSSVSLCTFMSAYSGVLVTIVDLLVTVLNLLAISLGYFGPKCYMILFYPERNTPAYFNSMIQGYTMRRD
Chain of hT1R2/T1R3mosaicA (Q925D8 with tags, fused parts or gaps with the stated changes limits assumed): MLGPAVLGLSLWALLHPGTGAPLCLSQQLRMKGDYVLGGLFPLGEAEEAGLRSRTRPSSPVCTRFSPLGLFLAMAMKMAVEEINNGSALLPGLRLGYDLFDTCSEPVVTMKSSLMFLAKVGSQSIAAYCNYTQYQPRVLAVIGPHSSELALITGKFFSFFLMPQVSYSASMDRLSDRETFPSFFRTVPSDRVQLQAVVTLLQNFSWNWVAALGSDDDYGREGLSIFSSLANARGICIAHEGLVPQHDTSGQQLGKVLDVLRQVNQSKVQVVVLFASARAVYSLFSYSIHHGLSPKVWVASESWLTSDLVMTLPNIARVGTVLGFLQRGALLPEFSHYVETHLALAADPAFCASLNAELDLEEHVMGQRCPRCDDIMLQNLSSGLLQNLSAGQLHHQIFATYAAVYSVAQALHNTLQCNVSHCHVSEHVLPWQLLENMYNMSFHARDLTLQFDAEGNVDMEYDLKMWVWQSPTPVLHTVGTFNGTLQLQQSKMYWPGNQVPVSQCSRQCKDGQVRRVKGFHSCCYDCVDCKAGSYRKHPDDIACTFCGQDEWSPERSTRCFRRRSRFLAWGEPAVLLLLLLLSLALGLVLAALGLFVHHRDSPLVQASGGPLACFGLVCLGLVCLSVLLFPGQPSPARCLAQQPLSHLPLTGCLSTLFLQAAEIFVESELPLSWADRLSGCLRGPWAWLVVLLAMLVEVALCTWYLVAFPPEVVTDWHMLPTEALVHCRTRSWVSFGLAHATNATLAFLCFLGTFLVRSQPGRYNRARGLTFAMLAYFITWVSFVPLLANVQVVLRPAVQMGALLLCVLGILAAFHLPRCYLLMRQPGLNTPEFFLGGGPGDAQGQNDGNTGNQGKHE

Row | Structure (SMILES) | S/N (h-mT1R2-EX5/mT1R3) | S/N (hT1R2/T1R3mosaicA; [1]) | S/N (hT1R2/T1R3mosaicA; [2])
1 | COC(=O)[C@H](Cc1ccccc1)NC(=O)[C@@H](N)CC(=O)O [Aspartame, aspartame] (HELM PEPTIDE1{D.F.[CO[*:1]]}$$$$V2.0) | 5.5 | 4.4 | 3.5
2 | OC[C@H]1O[C@H](O[C@]2(CCl)O[C@H](CCl)[C@@H](O)[C@@H]2O)[C@H](O)[C@@H](O)[C@H]1Cl [Sucralose, sucralose] | 5.9 | 6.0 | 5.9
3 | O=C1NS(=O)(=O)c2ccccc21.[Na] [Saccharin Na, sodium saccharin] | 3.8 | 4.3 | 4.2
4 | COC(=O)[C@H](Cc1ccccc1)NC(=O)[C@H](CC(=O)O)NCCCc1ccc(OC)c(O)c1 [Advantame, advantame] | 7.0 | 7.6 | 7.5
5 | C[C@H](NC(=Nc1ccc(C#N)cc1)NCC(=O)O)c1ccccc1 [SC-45647, [3-[(S)-1-phenylethyl]-2-(4-cyanophenyl)guanidino]acetic acid] | 5.3 | 5.9 | 6.8
6 | OC[C@H]1O[C@@](CO)(O[C@H]2O[C@H](CO)[C@@H](O)[C@H](O)[C@H]2O)[C@@H](O)[C@@H]1O [Sucrose, sucrose] | 3.7 | 2.6 | 2.3
7 | CC1=CC(=O)NS(=O)(=O)O1 [Acesulfame K, acesulfame potassium] | 3.7 | 3.7 | 3.7
8 | COC(=O)[C@H](Cc1ccccc1)NC(=O)[C@H](CC(=O)O)NCCC(C)(C)C [Neotame, neotame] | 5.2 | 5.7 | 6.5
9 | COc1ccc(CCC(=O)c2c(O)cc(O[C@@H]3O[C@H](CO)[C@@H](O)[C@H](O)[C@H]3O[C@@H]3O[C@@H](C)[C@H](O)[C@@H](O)[C@H]3O)cc2O)cc1O [NHDC, neohesperidin dihydrochalcone] |  | 2.9 | 3.8
